Patent EP0488224A2, “Fermentationproduct of a Verticimonosporium strain and feed additivs containing a linear peptide” (MITSUBISHI KASEI CORPORATION, priority 1990, dated 1992)
Like-named read-outs stand apart in the source and are kept apart here.

Columns and labels:
rumen fermentation = experiment: Effect on feed efficiency in vivo (rumen content of a goat given feed additive); conditions: 80 mg/day in feed, percentage to control (100)
Description: The effect of linear peptide compounds on the feed effeciency was evaluated in vivo using a ruminant animal.
A goat (a native species of Japan, 25 Kg) equipped with rumen fistula was used. As a feed additive, either of linear peptide compounds, MBA090-18 and gramicidin D, was administered to the animal. The rumen content was collected through the fistula and subjected to the assay in the same manner as described in the above Experiment 4 to obtain the total amount of VFAs, the production ratio of propionic acid to acetic acid (PA/AA) and the number of survival protozoas. In the table, values are shown as the percentage to the control values (100) obtained by keeping animal with the same feed ration to which neither of test compounds has been added.

Caenorhabditis elegans = experiment: Anti-nematode activity (1): growth and motility of nematodes in suspension; format: cell-based; parameters: key: 5 scales, - ±, +, ++ and +++; 5 scales, - ±, +, ++ and +++; 5 scales, - ±, +, ++ and +++; 5 scales, - ±, +, ++ and +++; 5 scales, - ±, +, ++ and +++; conditions: 12.5 ppm, 20 °C, one week
Description: Anti-nematode activity of substance MBA090-18 was evaluated using Caenorhabditis elegans, a soil […] nematode.
Caenorhabditis elegans was suspended into sterilized water at the density of 20 - 30 heads/100 µl. To the suspension was added substance MBA090-18 at the concentration of 12.5 ppm. The mixture was incubated at 20 °C for one week while the growth and motility of nematodes being observed. […] The anti-nematode activity was evaluated and expressed according to the following 5 scales, - ±, +, ++ and +++.

[1] = value from a literature; cited from earlier work
[2] = Acute toxicity on oral administration; format: in vivo; conditions: five male mouse
Description: The acute toxicity of substance MBA090-18 was determined using five male mouse on oral administration.

rumen bacterial solution = experiment: Effect on digestion of cellulose by rumen bacterial solution; parameters: species or system goat; conditions: 5 µg/ml, 37 °C, 3 days; 0 µg/ml control 72
Description: The effect of substance MBA090-18 on the digestion of cellulose in the rumen was evaluated.
A goat (a native species of Japan, 20 Kg) equipped with rumen fistula was again used. A preparation of rumen bacterial solution was prepared by collecting the rumen content through the fistula, followed by a prompt centrifugation at 3000 rpm for 10 min to remove feed debris and protozoa.
To the 10 ml of the bacterial solution was added 50 ml of a basal medium described in the above Experiment 3 except that 0.4 g of cellulose powder and 6 mg of vitamin mixture are supplemented. The flask is then sealed anaerobically under CO₂ gas and incubated at 37 °C for 3 days. When the incubation finished, the cultured broth was assayed about the digestion of cellulose.

Molecule | Antinematode Activity growth (Caenorhabditis elegans) | Antinematode Activity mobility (Caenorhabditis elegans) | acute toxicity [2] [mg/kg] | other results
Gramicidin D | – | – | – | total VFAs (%) (rumen fermentation): 103%; PA/AA (%) (rumen fermentation; propionic acid to acetic acid): 125%; Protozoa (%) (rumen fermentation; surviving protozoa): 86%
Avermectin | +++ | +++ | – | acute toxicity [1]: 35 mg/kg
Monensin | – | – | 43.8 | Digestion Rate of Cellulose (%) (rumen bacterial solution): 10%
CC[C@@H](C(=O)[C@@H](C)[C@@H](O)[C@H](C)[C@@H]1O[C@@H]([C@@H](CC)C(=O)O)CC[C@@H]1C)[C@H]1O[C@]2(C=C[C@@H](O)[C@]3(CC[C@@](C)([C@H]4CC[C@](O)(CC)[C@H](C)O4)O3)O2)[C@H](C)C[C@@H]1C [Salinomysin] | – | – | 50 | –
CN[C@H]1C[C@@H](N)[C@H](O)[C@@H](O[C@@H]2O[C@H](CO)[C@H](O)[C@@H]3OC4(O[C@H]23)O[C@H]([C@@H](N)CO)[C@H](O)[C@H](O)[C@H]4O)[C@@H]1O (some centres unmarked) [Hygromycin B] | ++ | ± | – | –
